Entries after “also recorded” stand apart in the source; their conditions may differ.

These results are taken from US7521533B2, “Tryptase polypeptide and uses thereof” (priority 2002, dated 2009).

The test is described as follows: Cleavage of trypsin-susceptible pNA chromogenic substrate, reverse-phase HPLC. Type of test: biochemical. Particulars: for ability to cleave D-Ile-Phe-Lys pNA / ability to cleave N-Benzoyl-Pro-Phe-Arg-pNA / ability to cleave N-p-Tosyl-Gly-Pro-Lys 4-pNA: ~2 μg enzyme, 10 μg substrate, 37° C. 2 hrs, 100 mM HEPES pH7.5 10% glycerol, no exogenous heparin. The protocol:
The enzymatic activity of recombinant δ tryptase was evaluated by testing its ability to cleave a panel of three trypsin-susceptible p-nitroanilide (pNA) chromogenic substrates; N-Benzoyl-Pro-Phe-Arg-pNA, D-Ile-Phe-Lys pNA, and N-p-Tosyl-Gly-Pro-Lys 4-pNA (Sigma-Adrich, St Louis, Mo.) and was compared to that of rαII tryptase, and commercially available native human lung tryptase (ICN, Costa Mesa, Calif.) and recombinant human lung βII tryptase (Promega, Madison, Wis.). Pro-δ tryptase (ie prior to removal of the EK susceptible activation peptide), recombinant EK alone, and buffer alone acted as negative controls. Approximately equal amounts (˜2 μg) of the enzymes were incubated with each substrate (10 μg) at 37° C. for 2 hrs, in 100 mM HEPES pH7.5 10% glycerol (total reaction volume=50 μl), and then analysed by HPLC using a reverse-phase column (4.6×50 […] RP18 Xterra, Waters, Bedford, Mass.). In this initial investigation no exogenous heparin was added. Substrate cleavage was determined by the detection of new peaks representing the separated peptide and nitroanilide moieties. The amount of substrate cleaved was estimated by measuring the area under the HPLC peak that corresponded to the liberated peptide moiety using Delta T Scan software version 2.04 (Delta T Devices Ltd, Cambridge, UK). The retention time of the liberated nitroanilide was constant and was experimentally determined to be 2.67 mins.

Turning to “pro-rδ tryptase: Recombinant δ tryptase prior to removal of the EK susceptible activation peptide; negative control”, the “ability to cleave D-Ile-Phe-Lys pNA” value is “No substrate cleavage was detected”.

For the substance “rβII tryptase: Commercially available recombinant human lung βII tryptase (Promega) [reference compound]”, the “ability to cleave D-Ile-Phe-Lys pNA” value was “cleave all three substrates”, the “ability to cleave N-Benzoyl-Pro-Phe-Arg-pNA” value is “cleave all three substrates” and the “ability to cleave N-p-Tosyl-Gly-Pro-Lys 4-pNA” value is “cleave all three substrates”.

Regarding “rδ tryptase: Recombinant human δ tryptase expressed in bacterial cells, refolded, mature form generated by enterokinase cleavage”, the “ability to cleave D-Ile-Phe-Lys pNA” value is on record as “able to cleave; also recorded: cleaves”, the “ability to cleave N-Benzoyl-Pro-Phe-Arg-pNA” value is recorded as “ineffective” and the “ability to cleave N-p-Tosyl-Gly-Pro-Lys 4-pNA” value is reported as “ineffective”. For the same substance, for the setting “area under HPLC peak of liberated peptide moiety, relative to rβII tryptase”, the “amount of D-Ile-Phe-Lys pNA substrate cleaved, as much as that cleaved by rβII tryptase” value is on record as “approximately 12%”.
